Laboratory results: patent US9353048B2, “Compound as KCNQ potassium channel agonist, preparation method therefor and use thereof” (SHANGHAI INSTITUTE OF MATERIA MEDICA, CHINESE ACADEMY OF …, priority 2011, dated 2016)
Entries after “also recorded” stand apart in the source; their conditions may differ. Marks after values point to notes of the source that are not given here.

Columns and labels:
[1] = system: Convulsion Induced by Pentylenetetrazole (PTZ); assay: Convulsion induced by pentylenetetrazole (PTZ), compounds by gastric lavage, C57BL/6J mice; assay type: in vivo; settings: 30 mg/kg gastric lavage
Procedure: The compounds to be tested were administrated to animals by gastric lavage (30 mg/kg); one hour later, pentylenetetrazole was administrated by subcutaneous injection (PTZ 80 mg/kg); and response of animals were observed within a period of 60 min.

[2] = system: Animal Models Induced by MES (Maximum Electroshock); assay: MES test, compounds by intraperitoneal injection, KM mice; assay type: in vivo; settings: 10 mg/kg i.p., MES 30 min later
From the text: (§1) One time of electrical stimulation was applied to animals through ear clip electrodes, and a convulsion characterized by a tonic hind limb extension was observed. One day before the test, animals were screened in the above procedure to record the values of MES.

[3] = Solubility in water (treatment of samples)
[4] = system: Animal Models Induced by MES; assay: MES test, compounds orally administrated (gastric lavage), KM mice; assay type: in vivo
Procedure: as §1
1 hour later, MES was applied according to parameters set the last day, and response of animals were observed and recorded immediately.

[5] = system: Animal Models Induced by PTZ (Pentylenetetrazole); assay: PTZ test, compounds by intraperitoneal injection, KM mice; assay type: in vivo; settings: for Incidence rate of convulsion: PTZ 100 mg/kg s.c. 30 min later, observation 1 h
Procedure: Compounds to be tested were administrated by intraperitoneal injection (10 mg/kg, 5 mg/kg, 2.5 mg/kg, 0.1 ml/10 g).

[6] = system: Animal Models Induced by PTZ; assay: PTZ test, compounds orally administrated (gastric lavage), KM mice
Procedure: Response of animals were observed immediately and recorded within a period of 1 h.

[7] = 30 mg/kg gastric lavage, MES 1 hour later

CCOC(=O)Nc1ccc(NCc2ccc(F)cc2)cc1N [Retigabine, retigabine, reference compound]
Latency period of clonus ([1]; PTZ 80 mg/kg s.c. 1 h later): No typical
Latency period of whole-body tonic seizures ([1]; PTZ 80 mg/kg s.c. 1 h later): 1472 ± 961 s
Mortality rate ([1]; PTZ 80 mg/kg s.c. 1 h later): 4/10
Incidence rate of convulsion ([1]; PTZ 80 mg/kg s.c. 1 h later, observed 60 min): 5/10
anti-convulsive effect (in words) ([1]; PTZ-induced convulsion): comparable anti-convulsive effect
behaviour of animals after administration ([1]; returned to normal after 20 min): quite and less active
Mortality rate [2]: 0
Incidence of convulsion ([2]; tonic hind limb extension): 4/11**
solubility in water (in words) [3]: can be easily dissolved in water
Incidence rate of convulsion [4, 7]: 5/13***
Protection rate of compounds [4, 7]: 61.5%***
effect in MES test (in words) ([4]; gastric lavage): significantly inhibiting the incidence of the grand mal seizure; also recorded: comparable effect
Incidence of tonic fore limb extension ([5]; 2.5 mg/kg i.p.): 5/10
Incidence of tonic hind limb extension ([5]; 2.5 mg/kg i.p.): 1/10**
Latency period of clonus ([5]; 2.5 mg/kg i.p.): 179 ± 60 s
Latency period of tonic hind limb ([5]; 2.5 mg/kg i.p.): 827 s
Mortality rate ([5]; 2.5 mg/kg i.p.): 7/10
Incidence rate of convulsion ([5]; 2.5 mg/kg i.p.): 10/10
Incidence of tonic fore limb extension ([5]; 5 mg/kg i.p.): 4/10
Incidence of tonic hind limb extension ([5]; 5 mg/kg i.p.): 2/10*
Latency period of clonus ([5]; 5 mg/kg i.p.): 184 ± 40 s
Latency period of tonic hind limb ([5]; 5 mg/kg i.p.): 883 ± 151 s
Mortality rate ([5]; 5 mg/kg i.p.): 5/10
Incidence rate of convulsion ([5]; 5 mg/kg i.p.): 10/10
Incidence of tonic hind limb extension ([5]; 10 mg/kg i.p.): 4/12*
Latency period of clonus ([5]; 10 mg/kg i.p.): 239 ± 113 s
Latency period of tonic hind limb ([5]; 10 mg/kg i.p.): 1100 ± 319 s
Mortality rate ([5]; 10 mg/kg i.p.): 2/12**
Incidence rate of convulsion ([5]; 10 mg/kg i.p.): 10/10
sedative effect ([5]; intraperitoneal injection): some sedative effect
Incidence of tonic fore limb extension ([6]; 30 mg/kg gastric lavage): 3/12**
Incidence of tonic hind limb extension ([6]; 30 mg/kg gastric lavage): 0/12**
Latency period of clonus ([6]; 30 mg/kg gastric lavage): 177 ± 70 s
Latency period of fore limb extension ([6]; 30 mg/kg gastric lavage): 1063 ± 284 s
Mortality rate ([6]; 30 mg/kg gastric lavage): 0/12**
Incidence rate of clonus ([6]; 30 mg/kg gastric lavage, PTZ 100 mg/kg s.c. 1 h later, observation 1 h): 12/12
effect in PTZ test (in words) ([6]; gastric lavage): obviously reduce the incidence rate of convulsion and mortality rate; also recorded: significantly reduce the incidence rate of convulsion and mortality rate
